Experimental data: patent publication US20260335294A1, “TREATING CONGENITAL DISORDERS OF GLYCOSYLATION” (Mayo Foundation for Medical Education and Research, priority 2022, published 2026)
Marks after values point to notes of the source that are not given here.

Tests used:
[1] = test system: PMM2-CDG fibroblasts; details: cited from earlier work
[2] = test system: PMM; details: patient fibroblasts; cited from earlier work
[3] = test system: PMM2-CDG patients; test: Carbohydrate deficient transferrin (CDT) in patients on epalrestat; format: in vivo, human; details: for CDT a-oligo/di-oligo ratio: C < 0.011; for CDT mono-oligo/di-oligo ratio: C < 0.06
Text: (§1) The primary objective of the study was to assess the efficacy and safety of epalrestat treatment in 3 PMM2-CDG pediatric subjects prior to a planned Phase III clinical trial (Oral epalrestat therapy in Pediatric Subjects with PMM2-CDG, NCT04925960). The secondary objective was to assess the ability of epalrestat to improve clinically relevant aspects of PMM2-CDG such as increased urine polyols (sorbitol, mannitol), abnormal glycosylation (carbohydrate deficient transferrin), abnormal coagulation (ATIII=antithrombin III), impaired liver function (ALT=Alanine Transaminase, AST=Aspartate Transaminase), neurologic function (Brief Ataxia Rating Scale=BARS), severity of phenotype (Nijmegen Pediatric CDG Rating Scale=NPCRS). The ability of epalrestat to inhibit polyol production was monitored by evaluating urine polyol levels (sorbitol, mannitol), which are elevated in PMM2-CDG. Next, carbohydrate deficient transferrin, which is abnormal in PMM2-CDG, was evaluated in order to assess improvement of glycosylation following epalrestat treatment. CDT mono-oligo/dioligo ratio and a-oligo/dioligo ratio are used to evaluate glycosylation abnormalities. Transferrin normally occurs with two glycan chains (di-oligo). In the case of glycosylation abnormalities, glycan chains are missing (A-oligo transferrin has no glycan chains, mono-oligo has one glycan chain, di-oligo has two glycan chains). The higher ratio of a-oligo/di-oligo and mono-oligo/di-oligo indicate glycosylation abnormalities are present. Therefore, improvement in a-oligo/di-oligo and mono-oligo/di-oligo ratios can be used to monitor improvement or worsening of glycosylation status. Changes in the liver enzymes AST, ALT, which are frequently elevated in PMM2-CDG, were monitored both as part of a safety study and as part of monitoring clinical improvement in coagulation. Neurologic improvement was assessed by modified BARS scores in 2 patients (3rd patient was not eligible for the test due to age at the start of the trial). NPCRS was assessed at every visit to assess changes in the severity of the patients' phenotype. Additionally, the frequency of adverse events, changes in vital signs, complete blood count, and changes in BMI were monitored.
(§2) Two patients were started on epalrestat on single patient investigational new drug (IND) (P5 IRB: 19-010017; IND #145262; P6 Protocol PMM2-CDG-001/A). Epalrestat was initiated on the parents' own initiative in the third patient (P7). Two patients were in their second year of epalrestat treatment, while the third, was in the 3rd year of treatment. Physical, neurological, and biochemical examinations were performed in 3 PMM2-CDG patients at baseline, and at every three months after the start of the epalrestat treatment. Patients underwent NPCRS phenotype severity assessment and biological sampling at every visit. Epalrestat (Ono Pharmaceuticals, Osaka, Japan) was taken orally 3 times per day (TID) before meals in a divided dose, with dosage escalation throughout the treatment. The pharmacological profile of epalrestat was as described elsewhere (Ligezka et al, Ann. Neurol., 90(6):887-900 (2021)). The starting dosage in P5 and P6 was 0.8 mg/kg/day, while P7 was started on 0.5 mg/kg/day due to their young age. P7 dosage was increased to 0.8 mg/day after a month, once safety was established. Blood and urine samples were collected routinely. Urine polyols, carbohydrate deficient transferrin (CDT), anti-thrombin III (ATIII), liver enzymes (ALT, AST), and complete blood count (CBC) were performed. Modified Brief Ataxia Rating Scale was used to assess ataxia in the 2 patients (P5, P6; P7 was not eligible for the test due to age). The modified BARS scale included Archimedes spiral test, but not the abnormalities of the ocular pursuit system and the scale range was 0-54. Goal attainment scale (GAS) was administered as described per study protocol (ClinicalTrials.gov Identifier: NCT04199000). […]

[4] = test system: PMM2-CDG patients; test: Safety and tolerability of epalrestat in pediatric patients; format: in vivo, human
Procedure: The primary objective of the study was to assess the efficacy and safety of epalrestat treatment in 3 PMM2-CDG pediatric subjects prior to a planned Phase III clinical trial (Oral epalrestat therapy in Pediatric Subjects with PMM2-CDG, NCT04925960). […] The ability of epalrestat to inhibit polyol production was monitored by evaluating urine polyol levels (sorbitol, mannitol), which are elevated in PMM2-CDG. Next, carbohydrate deficient transferrin, which is abnormal in PMM2-CDG, was evaluated in order to assess improvement of glycosylation following epalrestat treatment. […] Changes in the liver enzymes AST, ALT, which are frequently elevated in PMM2-CDG, were monitored both as part of a safety study and as part of monitoring clinical improvement in coagulation. Neurologic improvement was assessed by modified BARS scores in 2 patients (3rd patient was not eligible for the test due to age at the start of the trial). NPCRS was assessed at every visit to assess changes in the severity of the patients' phenotype. Additionally, the frequency of adverse events, changes in vital signs, complete blood count, and changes in BMI were monitored. […]

[5] = test system: PMM2-CDG patients; test: Liver enzymes (AST, ALT) in patients on epalrestat; format: in vivo, human; details: for ALT: C < 45 U/l; for AST: C: < 50 U/l
Text: as §1, §2

[6] = test system: pmm2 mutant zebrafish; test: Viability of treated zebrafish; format: in vivo
[7] = P7, Baseline column: first available results 3 months after starting treatment, 0.5, 0.8 mg/kg day

CC(/C=C1\SC(=S)N(CC(=O)O)C1=O)=C\c1ccccc1 [epalrestat]
overall glycosylation as assessed by glycoproteomics ([1]; PMM2-CDG fibroblasts): overall glycosylation improvement
glycosylation in vitro ([1]; PMM2-CDG, Ligezka et al 2021): improved glycosylation
PMM enzymatic activity [2]: increase
CDT a-oligo/di-oligo ratio ([3]; P5, 12 months, 1.5 mg/kg day, baseline 0.005): 0.003
CDT mono-oligo/di-oligo ratio ([3]; P5, 12 months, 1.5 mg/kg day, baseline 0.09): 0.06
CDT a-oligo/di-oligo ratio ([3]; P5, 24 months, 2 mg/kg day, baseline 0.005): 0.010
CDT mono-oligo/di-oligo ratio ([3]; P5, 24 months, 2 mg/kg day, baseline 0.09): 0.09
CDT a-oligo/di-oligo ratio ([3]; P5, 28 months, 3 mg/kg day, baseline 0.005): 0.08
CDT mono-oligo/di-oligo ratio ([3]; P5, 28 months, 3 mg/kg day, baseline 0.09): 0.07
CDT ([3]; P5, words): Normalization of CDT
CDT a-oligo/di-oligo ratio ([3]; P6, 12 months, 1.5 mg/kg day, baseline 0.196): 0.111
CDT mono-oligo/di-oligo ratio ([3]; P6, 12 months, 1.5 mg/kg day, baseline 0.69): 0.43
CDT a-oligo/di-oligo ratio ([3]; P6, 18 months, 3 mg/kg day, baseline 0.196): 0.105
CDT mono-oligo/di-oligo ratio ([3]; P6, 18 months, 3 mg/kg day, baseline 0.69): 0.47
CDT ([3]; P6, 18 months, escalating doses, words): significant improvement in CDT with a steady trend towards normalization
CDT a-oligo/di-oligo ratio ([3]; P7, 12 months, 1.5 mg/kg day): 1.033
CDT mono-oligo/di-oligo ratio ([3]; P7, 12 months, 1.5 mg/kg day): 1.58
CDT a-oligo/di-oligo ratio [3, 7]: 0.919#
CDT mono-oligo/di-oligo ratio [3, 7]: 1.60#
CDT ([3]; P7, one-year mark, words): slight improvement
CDT ([3]; overall, words): improvement
tolerability of escalating doses ([4]; three pediatric patients P5-7): well-tolerated
side-effects ([4]; three pediatric patients P5-7, oral TID, long-term): No side-effects were observed
ALT ([5]; P5, 12 months, 1.5 mg/kg day, baseline 23): 24 U/L
AST ([5]; P5, 12 months, 1.5 mg/kg day, baseline 48): 37 U/L
ALT ([5]; P5, 24 months, 2 mg/kg day, baseline 23): 25 U/L
AST ([5]; P5, 24 months, 2 mg/kg day, baseline 48): 34 U/L
ALT ([5]; P5, 28 months, 3 mg/kg day, baseline 23): 25 U/L
AST ([5]; P5, 28 months, 3 mg/kg day, baseline 48): 40 U/L
liver transaminase levels ([5]; P5-P7, words): improvement
AST ([5]; P6, 12 months, 1.5 mg/kg day, baseline 58): 40 U/L
ALT ([5]; P6, 12 months, 1.5 mg/kg day, baseline 67): 32 U/L
AST ([5]; P6, 18 months, 3 mg/kg day, baseline 58): 38 U/L
ALT ([5]; P6, 18 months, 3 mg/kg day, baseline 67): 49 U/L
AST ([5]; P7, 12 months, 1.5 mg/kg day, baseline 548): 80 U/L
ALT ([5]; P7, 12 months, 1.5 mg/kg day, baseline 997): 105 U/L
viability, treated vs untreated [6]: no significant difference
